System: MDA-MB-468 spheroids with HUVEC/MSC, viability
Assay: Anticancer human tumor MDA-MB-468 cell line growth inhibition [PI3K];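 further: spheroids exposed to agents for seven days before readout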;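 on viability, T/C: 100% = DMSO vehicle control viability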
Conditions: for IC50: curve of first compound; for viability, T/C: stronger effect = lower value
Method in brief: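 Agents were dosed from a top concentration near clinical Cmax (otherwise 10 microM) in half-log decrements, alone or combined with PI3K inhibitors. The spheroids contain tumor cells plus endothelial (HUVEC) and MSC stroma; viability is measured.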

[1] = second compound 0.00316 µM, first compound 0.0316 µM
[2] = second compound 0.00316 µM, first compound 0.1 µM
[3] = second compound 0.00316 µM, first compound 0.316 µM
[4] = second compound 0.00316 µM, first compound 1 µM
[5] = second compound 0.00316 µM, first compound 3.16 µM
[6] = second compound 0.00316 µM, first compound 10 µM
[7] = second compound 0.01 µM, first compound 0.0316 µM
[8] = second compound 0.01 µM, first compound 0.1 µM
[9] = second compound 0.01 µM, first compound 0.316 µM
[10] = second compound 0.01 µM, first compound 1 µM
[11] = second compound 0.01 µM, first compound 3.16 µM
[12] = second compound 0.01 µM, first compound 10 µM
[13] = second compound 0.0316 µM, first compound 0.0316 µM
[14] = second compound 0.0316 µM, first compound 0.1 µM
[15] = second compound 0.0316 µM, first compound 0.316 µM
[16] = second compound 0.0316 µM, first compound 1 µM
[17] = second compound 0.0316 µM, first compound 3.16 µM
[18] = second compound 0.0316 µM, first compound 10 µM
[19] = second compound 0.1 µM, first compound 0.0316 µM
[20] = second compound 0.1 µM, first compound 0.1 µM
[21] = second compound 0.1 µM, first compound 0.316 µM
[22] = second compound 0.1 µM, first compound 1 µM
[23] = second compound 0.1 µM, first compound 3.16 µM
[24] = second compound 0.1 µM, first compound 10 µM
[25] = second compound 0.316 µM, first compound 0.0316 µM
[26] = second compound 0.316 µM, first compound 0.1 µM
[27] = second compound 0.316 µM, first compound 0.316 µM
[28] = second compound 0.316 µM, first compound 1 µM
[29] = second compound 0.316 µM, first compound 3.16 µM
[30] = second compound 0.316 µM, first compound 10 µM
[31] = second compound 1 µM, first compound 0.0316 µM
[32] = second compound 1 µM, first compound 0.1 µM
[33] = second compound 1 µM, first compound 0.316 µM
[34] = second compound 1 µM, first compound 1 µM
[35] = second compound 1 µM, first compound 3.16 µM
[36] = second compound 1 µM, first compound 10 µM
[37] = second compound 3.16 µM, first compound 0.0316 µM
[38] = second compound 3.16 µM, first compound 0.1 µM
[39] = second compound 3.16 µM, first compound 0.316 µM
[40] = second compound 3.16 µM, first compound 1 µM
[41] = second compound 3.16 µM, first compound 3.16 µM
[42] = second compound 3.16 µM, first compound 10 µM
[43] = second compound 10 µM, first compound 0.0316 µM
[44] = second compound 10 µM, first compound 0.1 µM
[45] = second compound 10 µM, first compound 0.316 µM
[46] = second compound 10 µM, first compound 1 µM
[47] = second compound 10 µM, first compound 3.16 µM
[48] = second compound 10 µM, first compound 10 µM

## CC1(C)CCC(CN2CCN(c3ccc(C(=O)NS(=O)(=O)c4ccc(NCC5CCOCC5)c([N+](=O)[O-])c4)c(Oc4cnc5[nH]ccc5c4)c3)CC2)=C(c2ccc(Cl)cc2)C1 + COc1c(OCCCN2CCOCC2)ccc2c3n(c(=NC(=O)c4cnc(N)nc4)nc12)CCN3
Second compound 0.00316 µM
  IC50: > 10 µM
Second compound 0.01 µM
  IC50: > 10 µM
Second compound 0.0316 µM
  IC50: > 10 µM
Second compound 0.1 µM
  IC50: > 10 µM
Second compound 0.316 µM
  IC50: < 0.0316 µM
Second compound 1 µM
  IC50: < 0.0316 µM
[1]
  viability, T/C: 80.4%
[2]
  viability, T/C: 87%
[3]
  viability, T/C: 82.9%
[4]
  viability, T/C: 99.9%
[5]
  viability, T/C: 80.3%
[6]
  viability, T/C: 78.3%
[7]
  viability, T/C: 79.2%
[8]
  viability, T/C: 79.7%
[9]
  viability, T/C: 92%
[10]
  viability, T/C: 87.9%
[11]
  viability, T/C: 76.2%
[12]
  viability, T/C: 90.2%
[13]
  viability, T/C: 77.5%
[14]
  viability, T/C: 71.2%
[15]
  viability, T/C: 80%
[16]
  viability, T/C: 83.1%
[17]
  viability, T/C: 73%
[18]
  viability, T/C: 69.6%
[19]
  viability, T/C: 55.7%
[20]
  viability, T/C: 54.8%
[21]
  viability, T/C: 69.7%
[22]
  viability, T/C: 63.4%
[23]
  viability, T/C: 52.5%
[24]
  viability, T/C: 67.6%
[25]
  viability, T/C: 26.4%
[26]
  viability, T/C: 23.5%
[27]
  viability, T/C: 25.5%
[28]
  viability, T/C: 28.9%
[29]
  viability, T/C: 25.5%
[30]
  viability, T/C: 22.8%
[31]
  viability, T/C: 4.5%
[32]
  viability, T/C: 3.78%
[33]
  viability, T/C: 4.07%
[34]
  viability, T/C: 3.93%
[35]
  viability, T/C: 4.32%
[36]
  viability, T/C: 4.03%

## Cn1nccc1Nc1nccc(-c2ccn(C(CO)c3ccc(Cl)c(F)c3)c(=O)c2)n1 (stereo not given) + COc1c(OCCCN2CCOCC2)ccc2c3n(c(=NC(=O)c4cnc(N)nc4)nc12)CCN3
Second compound 0.00316 µM
  IC50: > 10 µM
Second compound 0.01 µM
  IC50: > 10 µM
Second compound 0.0316 µM
  IC50: 7.63 µM
Second compound 0.1 µM
  IC50: 4.4 µM
Second compound 0.316 µM
  IC50: < 0.0316 µM
Second compound 1 µM
  IC50: < 0.0316 µM
[1]
  viability, T/C: 90.7%
[2]
  viability, T/C: 83%
[3]
  viability, T/C: 79.1%
[4]
  viability, T/C: 85.3%
[5]
  viability, T/C: 81.3%
[6]
  viability, T/C: 73.6%
[7]
  viability, T/C: 71.1%
[8]
  viability, T/C: 86.5%
[9]
  viability, T/C: 78.7%
[10]
  viability, T/C: 71.8%
[11]
  viability, T/C: 77.9%
[12]
  viability, T/C: 76.9%
[13]
  viability, T/C: 71.3%
[14]
  viability, T/C: 68.7%
[15]
  viability, T/C: 71.7%
[16]
  viability, T/C: 73.9%
[17]
  viability, T/C: 61.9%
[18]
  viability, T/C: 46%
[19]
  viability, T/C: 56.3%
[20]
  viability, T/C: 54.9%
[21]
  viability, T/C: 52.5%
[22]
  viability, T/C: 52.4%
[23]
  viability, T/C: 50.9%
[24]
  viability, T/C: 48.6%
[25]
  viability, T/C: 24.6%
[26]
  viability, T/C: 23.3%
[27]
  viability, T/C: 23.3%
[28]
  viability, T/C: 24.9%
[29]
  viability, T/C: 26%
[30]
  viability, T/C: 19.9%
[31]
  viability, T/C: 3.06%
[32]
  viability, T/C: 2.27%
[33]
  viability, T/C: 2.37%
[34]
  viability, T/C: 2.51%
[35]
  viability, T/C: 1.79%
[36]
  viability, T/C: 0.85%

## C[C@@H](NC(=O)c1ncnc(N)c1Cl)c1ncc(C(=O)Nc2cc(C(F)(F)F)c(Cl)cn2)s1 + Cc1nc(NC(=O)N2CCCC2C(N)=O)sc1-c1ccnc(C(C)(C)C(F)(F)F)c1
Second compound 0.0316 µM
  IC50: > 10 µM
Second compound 0.1 µM
  IC50: > 10 µM
Second compound 0.316 µM
  IC50: > 10 µM
Second compound 1 µM
  IC50: > 10 µM
Second compound 3.16 µM
  IC50: 9.15 µM
Second compound 10 µM
  IC50: < 0.0316 µM
[13]
  viability, T/C: 75.5%
[14]
  viability, T/C: 109%
[15]
  viability, T/C: 85.4%
[16]
  viability, T/C: 117%
[17]
  viability, T/C: 89.7%
[18]
  viability, T/C: 82.8%
[19]
  viability, T/C: 88.4%
[20]
  viability, T/C: 89.2%
[21]
  viability, T/C: 86.4%
[22]
  viability, T/C: 119%
[23]
  viability, T/C: 95%
[24]
  viability, T/C: 85.2%
[25]
  viability, T/C: 107%
[26]
  viability, T/C: 92.2%
[27]
  viability, T/C: 78.8%
[28]
  viability, T/C: 98.3%
[29]
  viability, T/C: 85.3%
[30]
  viability, T/C: 68.6%
[31]
  viability, T/C: 91.9%
[32]
  viability, T/C: 71.8%
[33]
  viability, T/C: 72.7%
[34]
  viability, T/C: 75.7%
[35]
  viability, T/C: 69.1%
[36]
  viability, T/C: 61.6%
[37]
  viability, T/C: 84.7%
[38]
  viability, T/C: 59.2%
[39]
  viability, T/C: 74.8%
[40]
  viability, T/C: 61.4%
[41]
  viability, T/C: 59.3%
[42]
  viability, T/C: 46.8%
[43]
  viability, T/C: 40.2%
[44]
  viability, T/C: 31.9%
[45]
  viability, T/C: 39.3%
[46]
  viability, T/C: 35.4%
[47]
  viability, T/C: 34%
[48]
  viability, T/C: 17.1%

## CCCS(=O)(=O)Nc1ccc(F)c(C(=O)c2c[nH]c3ncc(-c4ccc(Cl)cc4)cc23)c1F + CC(Nc1ncnc2nc[nH]c12)c1cc2cccc(Cl)c2c(=O)n1-c1ccccc1
Second compound 0.0316 µM
  IC50: 4.45 µM
Second compound 0.1 µM
  IC50: 3.91 µM
Second compound 0.316 µM
  IC50: 3.74 µM
Second compound 1 µM
  IC50: 3.49 µM
Second compound 3.16 µM
  IC50: 2.53 µM
Second compound 10 µM
  IC50: < 0.0316 µM
[13]
  viability, T/C: 96.6%
[14]
  viability, T/C: 86.8%
[15]
  viability, T/C: 84.3%
[16]
  viability, T/C: 83.2%
[17]
  viability, T/C: 65.3%
[18]
  viability, T/C: 15.6%
[19]
  viability, T/C: 92.4%
[20]
  viability, T/C: 90.9%
[21]
  viability, T/C: 76.3%
[22]
  viability, T/C: 82.2%
[23]
  viability, T/C: 58.1%
[24]
  viability, T/C: 13.4%
[25]
  viability, T/C: 83.2%
[26]
  viability, T/C: 89.2%
[27]
  viability, T/C: 78.3%
[28]
  viability, T/C: 73.6%
[29]
  viability, T/C: 57.2%
[30]
  viability, T/C: 14%
[31]
  viability, T/C: 61.7%
[32]
  viability, T/C: 66.1%
[33]
  viability, T/C: 69%
[34]
  viability, T/C: 68.3%
[35]
  viability, T/C: 53.6%
[36]
  viability, T/C: 11%
[37]
  viability, T/C: 53.6%
[38]
  viability, T/C: 64.3%
[39]
  viability, T/C: 49.3%
[40]
  viability, T/C: 57.7%
[41]
  viability, T/C: 48.4%
[42]
  viability, T/C: 11.2%
[43]
  viability, T/C: 40.3%
[44]
  viability, T/C: 39.3%
[45]
  viability, T/C: 40.6%
[46]
  viability, T/C: 42.9%
[47]
  viability, T/C: 41.1%
[48]
  viability, T/C: 8.78%

## CC(C)NCC(C(=O)N1CCN(c2ncnc3c2C(C)CC3O)CC1)c1ccc(Cl)cc1 (stereo not given) + Cc1nc(NC(=O)N2CCCC2C(N)=O)sc1-c1ccnc(C(C)(C)C(F)(F)F)c1
Second compound 0.0316 µM
  IC50: 0.973 µM
Second compound 0.1 µM
  IC50: 1.2 µM
Second compound 0.316 µM
  IC50: 0.674 µM
Second compound 1 µM
  IC50: 0.424 µM
Second compound 3.16 µM
  IC50: 0.211 µM
Second compound 10 µM
  IC50: < 0.0316 µM
[13]
  viability, T/C: 76.9%
[14]
  viability, T/C: 92.2%
[15]
  viability, T/C: 60.9%
[16]
  viability, T/C: 50.9%
[17]
  viability, T/C: 35.1%
[18]
  viability, T/C: 23.2%
[19]
  viability, T/C: 84.8%
[20]
  viability, T/C: 83.5%
[21]
  viability, T/C: 68%
[22]
  viability, T/C: 53.4%
[23]
  viability, T/C: 34.2%
[24]
  viability, T/C: 18.4%
[25]
  viability, T/C: 84.6%
[26]
  viability, T/C: 71.8%
[27]
  viability, T/C: 61%
[28]
  viability, T/C: 46.9%
[29]
  viability, T/C: 26.7%
[30]
  viability, T/C: 19.5%
[31]
  viability, T/C: 95.8%
[32]
  viability, T/C: 66.7%
[33]
  viability, T/C: 56.9%
[34]
  viability, T/C: 41.9%
[35]
  viability, T/C: 23.2%
[36]
  viability, T/C: 18%
[37]
  viability, T/C: 62.9%
[38]
  viability, T/C: 61%
[39]
  viability, T/C: 42.5%
[40]
  viability, T/C: 33%
[41]
  viability, T/C: 19.3%
[42]
  viability, T/C: 14.8%
[43]
  viability, T/C: 32.1%
[44]
  viability, T/C: 28.8%
[45]
  viability, T/C: 22%
[46]
  viability, T/C: 19.1%
[47]
  viability, T/C: 9.63%
[48]
  viability, T/C: 6.41%

From PubChem BioAssay AID1963960 (Molecular Pharmacology Branch, DTP, NCI, 2024)
